Among the data in publication PMC10530362, “Light-Sensitive Open Channel Block of Ionotropic Glutamate Receptors by Quaternary Ammonium Azobenzene Derivatives” (International Journal of Molecular Sciences, 2023) are IC50 values, retold here.

In assay [1] the test system is T1, NMDA receptors (native, hippocampal CA1 pyramidal neurons).
T1 construct: gene Grin1; native heteromeric receptor in isolated rat CA1 pyramidal neurons
The experiment in a line: whole-cell patch clamp, NMDA-evoked steady-state current. Format: cell-based, Rattus norvegicus. The settings on record: dark (trans), -70 mV, 100 µM NMDA + 10 µM glycine, pH 7.4, 22-24 °C; voltage-dependent foot-in-the-door pore block; unit inferred, µM from context. (The patch-clamp technique gives a direct electrical read-out from membranes.)

Assay [2] relates to T2, calcium-permeable AMPA receptors (native, giant cholinergic interneurons of the striatum).
T2 construct: gene Gria1; native GluA2(R)-lacking receptors in isolated rat striatal giant interneurons
Kind of assay: whole-cell patch clamp, kainate-evoked current. Format: cell-based, Rattus norvegicus. The settings on record: dark (trans), -70 mV, 100 µM kainate, pH 7.4, 22-24 °C; open channel pore block plus minor voltage-independent site; unit inferred, µM from context.

On to `CC[N+](CC)(CC)CC(=O)Nc1ccc(N=Nc2ccc(NC(=O)C[N+](CC)(CC)CC)cc2)cc1` [QAQ], for which the IC50 (commonly the concentration that inhibits the measured activity by half) in assay [1] turned out to be 18.6 ± 1 µM; in assay [2], 17 ± 2 µM.
On the same counts, the results for `C=CC(=O)Nc1ccc(/N=N/c2ccc(NC(=O)C[N+](CC)(CC)CC)cc2)cc1` [AAQ] are 19 ± 1.4 µM and 28.5 ± 1.1 µM.
